In patent publication US6548546B2, “HIV integrase inhibitors” (Bristol-Myers Squibb Company, priority 2000, dated 2003) one finds inhibition data, which are given here for 13 molecules.

The structures appear in SMILES notation.

The test deals with T1, Purified recombinant HIV-1 integrase (Human immunodeficiency virus type 1 group M subtype B, UniProt P04585).
T1 construct: Purified recombinant HIV-1 integrase
Put plainly: in vitro HIV-1 integrase integration (strand transfer) assay. To be noted: compound at 70 μM; immobilized precleaved substrate DNA, biotinylated target DNA, 1 hour at 37° C. Format: biochemical. The procedure: The in vitro activities, against integrase, of compounds of the present invention, were measured in a manner which was similar to previously disclosed methods (cf. Hazuda, D. J.; Felock, P.; Witmer, M.; Wolfe, A.; Stillmock, K.; Grobler, J. A.; Espeseth, A.; Gabryelski, L.; Schleif, W.; Blau, C.; Miller, M. D. Science, 2000, 287, 646) Purified recombinant HIV-1 integrase was incubated with immobilized precleaved substrate DNA in a 96 well plate for 20 min at 37° C. After the integration complex was formed, compounds at desired concentrations were added to the wells followed by a 10 min incubation at 37° C. Biotinyted Target DNA was then added and the reaction was carried out for an additional 1 hour at 37° C. Wells were then washed thoroughly to remove any free DNA and integration activity was measured by using a commercial kit to quantitate the amount of biotinyted target DNA integrated into the substrate.
As for `O=C(/C=C(\O)C(=O)O)CCc1ccccc1Cl` [Compound 1, 6-(2-chloro-phenyl)-2-hydroxy-4-oxo-hex-2-enoic Acid], the inhibition at 70 µM amounted to 70%.

Regarding `O=C(/C=C(\O)C(=O)O)CCc1ccccc1Br` [Compound 2, 6-(2-Bromo-phenyl)-2-hydroxy-4-oxo-hex-2-enoic Acid], the inhibition at 70 µM was 90%.

As to `O=C(/C=C(\O)C(=O)O)CCc1ccccc1` [Compound 3, 2-Hydroxy-4-oxo-phenyl-hex-2-enoic Acid], the inhibition at 70 µM is 60%.

On to `O=C(/C=C(\O)C(=O)O)CC(=O)c1ccccc1OCc1ccccc1` [Compound 4, 6-(2-Benzyloxy-phenyl)-2-hydroxy-4,6,-dioxo-hex-2-enoic Acid], for which the inhibition at 70 µM is 97%.

In the case of `O=C(/C=C(\O)C(=O)O)CC(=O)c1ccccc1C(F)(F)F` [Compound 5, 2-Hydroxy-4,6-dioxo-6-(2-trifluoromethyl-phenyl)-hex-2-enoic Acid], the inhibition at 70 µM stood at 90%.

For the molecule `COc1ccccc1C(=O)CC(=O)/C=C(\O)C(=O)O` [Compound 6, 2-Hydroxy-6-(2-methoxy-phenyl)-4,6-dioxo-hex-2-enoic Acid], the inhibition at 70 µM stood at 90%.

In the case of `O=C(/C=C(\O)C(=O)O)CC(=O)c1ccc2ccccc2c1` [Compound 7, 2-Hydroxy-6-naphthalen-2-yl-4,6-dioxo-hex-2-enoic Acid], the inhibition at 70 µM was found to be 95%.

For `O=C(/C=C(\O)C(=O)O)CC(=O)c1ccc(Cl)cc1Cl` [Compound 8, 6-(2,4,-Dichloro-phenyl)-2-hydroxy-4,6-dioxo-hex-2-enoic Acid], the inhibition at 70 µM worked out at 95%.

For `O=C(/C=C(\O)C(=O)O)CC(=O)c1ccc(-c2ccccc2)cc1` [Compound 9, 6-Biphenyl-4-yl-2-hydroxy-4,6-dioxo-hex-2-enoic Acid], the inhibition at 70 µM is 99%.

As to `O=C(/C=C(\O)C(=O)O)CC(=O)c1cccc(Cl)c1` [Compound 10, 6-(3-Chloro-phenyl)-2-hydroxy-4,6-dioxo-hex-2-enoic Acid], the inhibition at 70 µM is 88%.

In the case of `O=C(/C=C(\O)C(=O)O)CC(=O)c1ccccc1F` [Compound 11, 6-(2-Fluoro-phenyl)-2-hydroxy-4,6,-dioxo-hex-2-enoic Acid], the inhibition at 70 µM amounted to 86%.

For `O=C(/C=C(\O)C(=O)O)CC(=O)c1cc(Cl)ccc1Cl` [Compound 12, 6-(2,5-Dichloro-phenyl)2-hydroxy-4,6-dioxo-hex-2-enoic Acid], the inhibition at 70 µM was 98%.

Take `O=C(/C=C(\O)C(=O)O)CC(=O)c1ccccc1` [Compound 13, 2-Hydroxy-4,6-dioxo-6-phenyl-hex-2-enoic Acid]: the inhibition at 70 µM is 50%.

The term inhibition denotes the share of the control response that was lost under treatment.
